Entries after “also recorded” stand apart in the source; their conditions may differ.
Tests used:
topoisomerase II = molecular target: T1, topoisomerase II (Homo sapiens, UniProt P11388); assay: TopoGen Topoisomerase II Assay Kit (kDNA decatenation); assay type: biochemical; settings: kDNA plus topoisomerase II; 5, 50, 500 μM PND
T1 construct: purchased TopoGen
Text: FIG. 3. Transcriptome analyses of possible pathways activated by pyronaridine (PND) and target validation. […] Pearson correlation analysis of the transcriptional signature of PND compared to the signatures deposited in LINCS project. Compounds marked correlate with the effects of PND, wherein darker the fill, the better the correlation. […] Lane 1, catenated kinetoplast DNA (kDNA); Lane 2, decatenated kDNA; Lane 3, linear kDNA; Lane 4, kDNA plus topoisomerase II; Lane 5, kDNA plus topoisomerase plus 5 μM of PND; Lane 6, kDNA plus topoisomerase plus 50 μM of PND; Lane 7, kDNA plus topoisomerase plus 500 μM of PND; Lane 8, kDNA plus topoisomerase II plus 1 mM etoposoide (Topo II inhibitor); Lane 9, kDNA plus topoisomerase ii plus PBS; 10, kDNA plus topoisomerase II plus DMSO.
In order to explore the possible Mechanism of Action (MoA) of PND, the transcriptome results for each cell line obtained were compared with the gene-expression data from the LINCS project (http://www.lincsproject.org), that contains the gene-expression profiles from various human cells treated with FDA-approved and withdrawn compounds as well as different well-characterized chemical reagents. It was reasoned that the expression profile of each lead compound should also induce a cellular gene expression response consistent with a known MoA of drugs deposited in LINCS. […]

MDA-MB-231 cells = assay: Phosphatidylserine externalization, annexin V-FITC/PI flow cytometry; assay type: cell-based, human; settings: 24 h
Protocol: (§1) To determine whether cell death induced by PND was occurring through apoptosis or necrosis, MDA-MB-231 and HL-60 cells were stained with annexin V-FITC and PI and monitored via flow cytometry. Cells were seeded in 24-well plates at a density of 100,000 for adherent MDA-MB-231 and 200,000 HL-60 cells in 1 ml of culture media. After overnight incubation, cells were treated with PND, and incubated for an additional 24 h. For MDA-MB-231 cells, unattached cells were harvested in an ice-cold tube, while adhered cells were detached by using HyQtase (Thermo Fisher) and incubated for around 5 min at 37° C. Both unattached and detached cells harvested from each individual well were washed with ice-cold PBS and centrifuged at 260×g for 5 min. HL-60 were centrifuged directly after the incubation period as they grow in suspension. Cells were then stained with a mixture of annexin V-FITC and PI in 100 μl of binding buffer and incubated on ice in the dark for 15 minutes, following the manufacturer's instructions (Beckman Coulter). Lastly, the cells were resuspended by the addition of 400 μl of ice-cold binding buffer and analysed by flow cytometry (Cytomics FC500; Beckman Coulter). For this series of experiments, cells treated with PBS, as solvent control; treated with H2O2, as a positive control of cytotoxicity; and untreated were included and processed in parallel. For each sample, 10,000 events/cells were collected and analysed using CXP software (Beckman Coulter). Both the experimental samples and their controls were processed similarly and assessed in triplicate. The sum of both early and late stages of apoptosis was calculated to obtain the total percentage of apoptotic cells.

HL-60 cells = assay: as above; assay type: cell-based, human; settings: 24 h
Protocol: as §1

[1] = test system: malignancy that was metastatic or unresectable; assay: Open-label study of oral PND in terminally-ill canine cancer patients; assay type: in vivo
Text: Due to ethical concerns of treating terminally-ill dogs, there was no placebo group.
The secondary outcomes were: anti-tumor activity, malignancy-associated symptom relief, and the safety and tolerability of PND.
Case 1, Mast cell carcinoma: Dog (Golden Retriever), female, 6 years old, 28.7 kg. Cancer was confirmed by histopathology report. In mid-May 2019 the administration of oral PND to the dog began after which patient received no other cancer medication. Veterinarian expected survival length of between 4 and 6 months at the time of study entry. Patient received 23 mg/kg/day PND (325 mg in the morning and 325 mg in the evening).
Case 2, Osteosarcoma: Dog (Saint Bernard), male, 5 years old, 49.7 kg. On 17 May 2019 the administration of oral PND began after which the patient received no other cancer medication. The veterinarian expected a survival length of between 4 and 6 months at the time of study entry. Patient received 20 mg/kg/day PND (325 mg in the morning and 650 mg in the evening).
Case 3, spindle cell sarcoma: Dog (Border Collie), male, 9 years old, 28.5 kg. In 2014 the dog was diagnosed with a low-grade spindle cell sarcoma, and was due to be euthanized on 11 Feb. 2019, with a life expectancy of 1-2 weeks. Instead, the veterinarian began the administration of oral PND on 11 Feb. 2019 after which patient received no other cancer medication. Patient received 15 mg/kg/day PND (215 mg in the morning and 215 mg in the evening).
Case 4, non-Hodgkin lymphoma: Dog (Boxer), female, 27 kg, 11 years old. Cancer was confirmed by biopsy report. In December 2018 the administration of oral PND to the dog began after which patient received no other cancer medication. Patient received 15 mg/kg/day PND (210 mg in the morning and 210 mg in the evening). However, the administration of PND stopped in February 2019 (due to shipping problems from the USA to Canada) and never resumed.
Case 5, mast cell tumor: Dog, male, 27.9 kg. Cancer was confirmed by histopathology report. A tumor was surgically excised from tongue, and there was no clean border. In December 2018 the administration of oral PND began after which the patient received no other cancer medication. Patient received 15 mg/kg/day PND (210 mg in the morning and 210 mg in the evening).

T1 sequence (P11388 whole entry): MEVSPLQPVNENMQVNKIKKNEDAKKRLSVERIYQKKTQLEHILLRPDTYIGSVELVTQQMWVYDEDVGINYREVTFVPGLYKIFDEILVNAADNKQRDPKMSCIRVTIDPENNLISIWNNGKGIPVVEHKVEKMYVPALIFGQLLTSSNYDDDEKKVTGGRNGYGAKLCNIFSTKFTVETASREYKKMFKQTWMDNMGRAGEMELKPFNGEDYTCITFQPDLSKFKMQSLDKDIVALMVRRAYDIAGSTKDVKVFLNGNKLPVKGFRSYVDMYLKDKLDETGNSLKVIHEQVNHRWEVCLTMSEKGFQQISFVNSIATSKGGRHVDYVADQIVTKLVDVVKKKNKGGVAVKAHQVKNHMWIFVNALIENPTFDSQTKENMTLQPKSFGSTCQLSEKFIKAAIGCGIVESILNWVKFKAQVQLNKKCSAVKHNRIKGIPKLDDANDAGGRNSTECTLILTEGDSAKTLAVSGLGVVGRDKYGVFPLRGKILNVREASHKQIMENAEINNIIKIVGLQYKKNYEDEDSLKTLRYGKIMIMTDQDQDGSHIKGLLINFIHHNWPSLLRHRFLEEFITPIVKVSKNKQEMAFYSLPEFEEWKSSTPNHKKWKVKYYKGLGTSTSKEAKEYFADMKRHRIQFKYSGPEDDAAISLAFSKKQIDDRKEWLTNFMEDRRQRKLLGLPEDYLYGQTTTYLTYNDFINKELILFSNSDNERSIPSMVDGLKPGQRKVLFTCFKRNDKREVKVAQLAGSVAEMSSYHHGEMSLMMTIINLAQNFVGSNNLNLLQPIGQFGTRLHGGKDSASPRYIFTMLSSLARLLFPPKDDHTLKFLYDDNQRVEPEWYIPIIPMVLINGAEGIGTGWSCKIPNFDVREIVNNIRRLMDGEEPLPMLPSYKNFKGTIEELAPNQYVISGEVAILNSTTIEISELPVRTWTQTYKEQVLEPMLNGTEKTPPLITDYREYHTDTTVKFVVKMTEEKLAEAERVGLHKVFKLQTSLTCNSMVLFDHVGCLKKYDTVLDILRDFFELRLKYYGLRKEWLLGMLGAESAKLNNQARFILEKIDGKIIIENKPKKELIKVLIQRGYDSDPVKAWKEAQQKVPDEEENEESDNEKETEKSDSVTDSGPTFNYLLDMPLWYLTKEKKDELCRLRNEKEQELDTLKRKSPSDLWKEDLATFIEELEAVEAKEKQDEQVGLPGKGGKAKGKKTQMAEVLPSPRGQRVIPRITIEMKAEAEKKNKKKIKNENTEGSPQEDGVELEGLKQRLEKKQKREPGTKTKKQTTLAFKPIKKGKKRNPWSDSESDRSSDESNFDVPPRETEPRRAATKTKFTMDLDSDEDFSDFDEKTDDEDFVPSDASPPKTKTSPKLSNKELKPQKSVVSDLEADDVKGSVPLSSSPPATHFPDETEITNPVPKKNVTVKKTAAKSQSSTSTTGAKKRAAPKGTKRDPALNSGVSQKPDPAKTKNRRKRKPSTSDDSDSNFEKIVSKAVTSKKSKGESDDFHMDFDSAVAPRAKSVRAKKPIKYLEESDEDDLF

Question: Which results are given for COC1=CC=C2Nc3cc(Cl)ccc3C(N=C3C=C(CN4CCCC4)C(=O)C(CN4CCCC4)=C3)=C2N1 [PND, 4-[(7-chloro-2-methoxy-1,5-dihydrobenzo[b][1,5]naphthyridin-10-yl)imino]-2,6-bis(pyrrolidin-1-ylmethyl)cyclohexa-2,5-dien-1-one]?
Answer: inhibition of topoisomerase II activity (topoisomerase II): activity of PND as a Topoisomerase inhibitor was confirmed; also recorded: inhibition of the topoisomerase II activity in a dose-dependent manner; annexin positive cells (PS externalization) (MDA-MB-231 cells; 11 μM): 67.2%; annexin positive cells (PS externalization) (MDA-MB-231 cells; 22 μM): 71.1%; apoptotic cells (PS externalization) (HL-60 cells; 34 μM): 14.8%; apoptotic cells (PS externalization) (HL-60 cells; 68 μM): 30.2%; study-drug related adverse events ([1]; Case 1, mast cell carcinoma, 23 mg/kg/day oral): no reports of any study-drug related adverse events; survival status ([1]; Case 1, as of June 2019, start mid-May 2019): still alive; possible study-drug related adverse events ([1]; Case 2, osteosarcoma, 20 mg/kg/day oral, resolved with diphenhydramine): drooling, facial swelling, and vomiting; survival status ([1]; Case 2, at June 2019, start 17 May 2019): still alive; study-drug related adverse events ([1]; Case 3, spindle cell sarcoma, 15 mg/kg/day oral): no reports of any study-drug related adverse events except initial vomiting; survival lengthened by ([1]; Case 3, life expectancy 1-2 weeks at entry): 3 months; reduction of volume of each tumor at follow-up ([1]; Case 3, three tumors): approximately 20%; survival lengthened by ([1]; Case 4): 2.5 months; study-drug related adverse events ([1]; Case 4, non-Hodgkin lymphoma, 15 mg/kg/day oral): no reports of any study-drug related adverse events; tumor shrinkage ([1]; Case 4, neck tumor, by March 2019): 70%; tumor volume at follow-up ([1]; Case 5, mast cell tumor, 15 mg/kg/day oral, 2 cm×1 cm versus 2 cm×1 cm): remained the same volume; survival status ([1]; Case 5, as of June 2019, start December 2018): still alive

Reference: patent US12201626B2, “Bifunctional compositions for the treatment of cancer” (ARMACEUTICA, INC., priority 2018, dated 2025)
